Laboratory results as given in patent US11873298B2, “Compounds and uses thereof” (JANSSEN PHARMACEUTICA NV, priority 2017, dated 2024).
“And” between values parts separate entries of the source, which are not always exact repeats. Equal entries are not always repeated.

Tests used:
Type in all cases: cell-based
SCD5 = target: T1, SCD5 (Homo sapiens, UniProt Q86SK9); test: Growth inhibition of humanized yeast strain expressing SCD5 as sole desaturase; details: humanized yeast strain expressing SCD5
T1 construct: host or cells: S. cerevisiae ole1Δ strain (W303 pdr1Δ pdr3Δ background), plasmid pRS316 with TDH3 promoter and CYC1 terminator
T1 sequence (Q86SK9 1-330): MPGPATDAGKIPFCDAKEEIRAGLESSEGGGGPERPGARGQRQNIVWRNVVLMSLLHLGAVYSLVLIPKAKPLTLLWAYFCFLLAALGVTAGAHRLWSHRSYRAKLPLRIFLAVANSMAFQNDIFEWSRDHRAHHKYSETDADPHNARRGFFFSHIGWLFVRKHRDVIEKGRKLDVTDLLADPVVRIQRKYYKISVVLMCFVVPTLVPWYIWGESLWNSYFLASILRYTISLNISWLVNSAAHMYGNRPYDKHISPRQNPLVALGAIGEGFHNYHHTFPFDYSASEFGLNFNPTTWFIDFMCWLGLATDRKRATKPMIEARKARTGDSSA
Summary of the method: (§1)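 OD600 growth read-out. ole1Δ yeast, pdr1Δ pdr3Δ, with Ole1/SCD1/SCD5 on a plasmid; SX-Ura media throughout; 2× cell density 0.02 in CSM-Galactose; DMSO compound dilutions; humidified 30° C.; Ole1 stopped at 24 h, SCD1/SCD5 at 40 h.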

Ole1 = target: T2, Ole1 (Saccharomyces cerevisiae, UniProt P21147); test: Growth inhibition of yeast strain expressing Ole1 as sole desaturase; details: yeast strain expressing Ole1 as sole desaturase
T2 construct: expressed in transfected cells; host or cells: S. cerevisiae ole1Δ strain (W303 pdr1Δ pdr3Δ background), plasmid pRS316 with TDH3 promoter and CYC1 terminator
T2 sequence (P21147 1-510): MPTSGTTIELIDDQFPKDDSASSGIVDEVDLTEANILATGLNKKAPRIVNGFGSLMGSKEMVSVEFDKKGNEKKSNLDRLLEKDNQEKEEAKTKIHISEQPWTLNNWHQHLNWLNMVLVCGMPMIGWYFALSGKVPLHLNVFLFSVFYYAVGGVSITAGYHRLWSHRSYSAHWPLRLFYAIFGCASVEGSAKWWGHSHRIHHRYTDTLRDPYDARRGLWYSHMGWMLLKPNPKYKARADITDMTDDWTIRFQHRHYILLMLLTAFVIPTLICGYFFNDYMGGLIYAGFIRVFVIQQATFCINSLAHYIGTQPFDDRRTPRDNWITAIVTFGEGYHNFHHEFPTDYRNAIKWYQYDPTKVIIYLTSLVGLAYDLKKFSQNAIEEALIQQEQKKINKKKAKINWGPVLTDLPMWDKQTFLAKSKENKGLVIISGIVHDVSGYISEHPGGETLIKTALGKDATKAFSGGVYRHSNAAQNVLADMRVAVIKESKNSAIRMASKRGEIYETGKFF
Summary of the method: as §1

SCD1 = target: T3, SCD1 (Homo sapiens, UniProt O00767); test: Growth inhibition of humanized yeast strain expressing SCD1 as sole desaturase; details: humanized yeast strain expressing SCD1
T3 construct: host or cells: S. cerevisiae ole1Δ strain (W303 pdr1Δ pdr3Δ background), plasmid pRS316 with TDH3 promoter and CYC1 terminator
T3 sequence (O00767 1-359): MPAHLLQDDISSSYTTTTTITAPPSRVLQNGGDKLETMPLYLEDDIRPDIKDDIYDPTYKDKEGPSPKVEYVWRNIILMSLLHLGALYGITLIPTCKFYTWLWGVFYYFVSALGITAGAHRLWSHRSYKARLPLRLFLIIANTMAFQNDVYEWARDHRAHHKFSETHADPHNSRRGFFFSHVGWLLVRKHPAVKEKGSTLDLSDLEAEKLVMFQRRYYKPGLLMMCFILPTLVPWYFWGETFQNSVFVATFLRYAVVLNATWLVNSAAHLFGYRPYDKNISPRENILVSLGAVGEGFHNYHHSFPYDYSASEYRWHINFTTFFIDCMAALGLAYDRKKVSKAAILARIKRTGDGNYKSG
Summary of the method: as §1

Row | Structure (SMILES) | IC50 (SCD5) [µM] | SCD5 % Max Inhibition (SCD5) | IC50 (Ole1) [µM] | OLE1 % Max Inhibition (Ole1) | SCD1 % Max Inhibition (SCD1) | IC50 (SCD1) [µM]
1 | Cc1nn(C)c2cc(-c3noc(N4CCN(C(=O)c5ccccc5C(F)(F)F)CC4)n3)ccc12 [Compound 295] | > 45 | 9.2% | > 45 | 18.4% | 14.4% | 
2 | Cc1nn(C)c2cc(-c3noc(C4CCN(S(=O)(=O)C(C)C)CC4)n3)ccc12 [Compound 279] | > 45 | 21.97% | > 45 | 83.07% | 43.86% | 
3 | COc1ccc(-c2noc(C3CCN(C(=O)CNC(=O)c4ccccc4)CC3)n2)cc1OC(C)C [Compound 274] | > 45 | 67.0% | > 45 | 75.9% | 75.3% | 
4 | CC(C)n1cc2ccc(-c3noc(C4CCN(C(=O)CNC(=O)c5ccccc5)CC4)n3)cc2n1 [Compound 181] | > 45 | 81.40% | > 45 | 20.70% | 88.32% | > 45
5 | COc1ccc(-c2noc(C3CCN(C(=O)[C@H](NC(=O)c4ccccc4)C4CC4)CC3)n2)cc1OC [Compound 190] | > 45 | 19.31% | > 45 | 100.94% | 83.53% | > 45
6 | Cc1nn(C)c2cc(-c3noc(N4CCN(C(=O)[C@H]5CC(=O)N(c6ccccc6)C5)CC4)n3)cnc12 [Compound 246] | > 45 | 66.03% | > 45 | 13.06% | 77.22% | 
7 | CCN(Cc1nc(-c2ccc3c(c2)N(CC)C(=O)CO3)no1)C(=O)Cc1cccc2ccccc12 [Compound 494] | > 45 | 73.76% | > 45 | 92.28% | 79.67% | 
8 | Cc1ncc2ccc(-c3noc(C4CCN(C(=O)CNC(=O)c5ccccc5)CC4)n3)cn12 [Compound 215] | > 45 | 78.96% | > 45 | 48.68% | 88.23% | > 45
9 | COc1cccc(-c2noc(C3CC(=O)N(c4ccc(C)c(C)c4)C3)n2)c1 (stereo not shown) [Compound 490] | 35.1 | 50.39% | > 45 | 96.38% | 63.84% | 38.8
10 | Cc1ccc(N2CC(C(=O)N3CCC(c4nc(-c5ccc6c(C)nn(C)c6c5)no4)CC3)CC2=O)nc1 (stereo not shown) [Compound 184] | > 45 | 2.41% and 11.92% | > 45 | 3.07% and 0.87% | 86.33% and 50.65% | > 45
11 | CCc1nn(C)c2cc(-c3noc(C4CCN(C(=O)CNC(=O)c5ccccc5)CC4)n3)ccc12 [Compound 309] | > 45 | 14.7% | > 45 | 8.0% | 80.6% | 
12 | Cc1nn(C)c2cc(-c3noc(N4CCN(C(=O)c5ccccc5Cl)CC4)n3)ccc12 [Compound 262] | > 45 | 10.38% | > 45 | 23.99% | 41.84% | 
13 | Cc1nn(C)c2cc(-c3noc(C4CCN(C(=O)CNC(=O)c5ccccc5)C4)n3)ccc12 (stereo not shown) [Compound 209] | > 45 | 78.88% | > 45 | 3.74% | 101.51% | > 45
14 | O=C(C1CCN(c2nc(-c3ccccc3)no2)CC1)N1CCOCC1 [Compound 5] | 24.5 |  | > 45 |  |  | > 45
15 | CC(C)(C#N)C1CN(c2noc(C3CCN(C(=O)C4CC(=O)N(c5ccccc5)C4)CC3)n2)C1 (stereo not shown) [Compound 254] | > 45 | 83.13% | > 45 | 92.77% | 69.80% | > 45
16 | Cc1nn(C)c2cc(-c3noc(C4CCN(C(=O)CN5Cc6ccccc6C5=O)CC4)n3)ccc12 [Compound 165] | > 45 | 80.23% | > 45 | 2.01% | 94.44% | > 45
17 | Cc1nn(C)c2cc(-c3noc(N4CCN(C(=O)c5ccccc5)CC4)n3)ccc12 [Compound 261] | > 45 | 82.31% | > 45 | 94.41% | 73.42% | 
18 | C[C@H]1CN(c2noc(C3CCN(C(=O)C4CC(=O)N(c5cccc(Cl)c5)C4)CC3)n2)C[C@H](C)O1 (stereo partly shown) [Compound 324] | > 45 | 68.7% | > 45 | 90.5% | 74.9% | > 45
19 | Cc1nn(C)c2cc(-c3nc(C4CCN(C(=O)C5CC(=O)N(c6cccc(C#N)c6)C5)CC4)no3)ccc12 (stereo not shown) [Compound 331] | > 45 | 24.9% | > 45 | 13.7% | 41.9% | > 45
20 | Cc1nn(C)c2cc(-c3noc(C4CCN(C(=O)[C@H]5CN(c6ccccc6)C(=O)O5)CC4)n3)ccc12 [Compound 173] | 29.8 | 42.09% | > 45 | 99.75% | 78.07% | > 45
21 | CC(C)(CO)n1cc2ccc(-c3noc(C4CCN(C(=O)C5CC(=O)N(c6ccccc6)C5)CC4)n3)cc2n1 (stereo not shown) [Compound 201] | 32.9 | 65.14% | > 45 | 85.29% | 79.67% | > 45
